# Entries after “also recorded” stand apart in the source; their conditions may differ.
# Experiments:
# [1] = system: TNF-α, IL-6, IL-1β, NF-κB, COX-2, ICAM-1; assay: Inflammatory response induced by focal cerebral ischemia-reperfusion injury, immunohistochemical staining; assay type: in vivo, rats
# From the text: 2.2 Effects of BZP on Inflammatory Response Induced by Focal Cerebral Ischemia-Reperfusion Injury in Rats:
# The results of TNF-α, IL-6, IL-1β, NF-κB, Cox-2, ICAM-1 immunohistochemical staining
# BZP can inhibit the cellular inflammatory response induced by cerebral ischemia-reperfusion injury, manifested as inhibiting the expression of TNF-α-IL-6-IL-1β-NF-κB-COX-2-ICAM-1 loop.
# [2] = Pharmacokinetics after intravenous injection in dogs; assay type: in vivo
# [3] = BZP1601 Phase I single dose pharmacokinetics in healthy subjects
# Protocol: Analysis population: Any subjects who have received BZP and undergone biological sample collections and can undergo pharmacokinetic analysis will be included in the pharmacokinetic analysis (excluding the 12.5 mg of pre-study group). The study analysis included 6 BPZ groups (respectively 25 mg, 50 mg, 100 mg, 200 mg, 300 mg, and 400 mg) and the placebo group, and the number of subjects enrolled in each group was 8, 8, 8, 8, 8, 8, 12 subjects, a total of 60 subjects. All 60 subjects enrolled in the formal study were included in the pharmacokinetic analysis set.
# The blood samples were collected at 0 minutes, 20 minutes, 40 minutes, minutes (end of infusion), 1.25 hours, 1.5 hours, 2 hours, 2.5 hours, 3 hours, 4 hours, 6 hours, 8 hours, 12 hours, 16 hours, 24 hours, 36 hours, and 48 hours after administration in BZP1601 trial, while in the BZP1702 trial, on the first day of administration, the blood samples were collected only by 24 hours after administration.
# [4] = system: SYN, GAP-43, BDNF, GFAP, NOGO-A in the ischemic penumbra area; assay: Neuroplasticity after focal cerebral ischemia-reperfusion injury; assay type: in vivo, rats
# From the text: 2.4 Effect of BZP on Neuroplasticity after Focal Cerebral Ischemia-Reperfusion Injury in Rats: […]
# platelet aggregation [5] = assay: Ex vivo platelet aggregation; assay type: cell-based
# salt-sensitive rats = assay: Salt-sensitive rats; assay type: in vivo
# experimental thrombosis = assay: Experimental thrombosis in rats; assay type: in vivo; settings: for results of experimental thrombosis: significantly lower than model group (P<0.01)
# [6] = Pharmacokinetics after intravenous injection in rats; assay type: in vivo
# platelet aggregation [7] = assay: Rat in vivo platelet aggregation
# respiratory system = assay: Safety pharmacology, respiratory system; assay type: in vivo, rats; settings: single intravenous injection 25-100 mg/kg
# Protocol: In terms of the respiratory system, a single intravenous injection of BZP 25-100 mg/kg had no effect on rats.
# [8] = Long-term toxicity test, 13 consecutive weeks, dogs; assay type: in vivo
# Protocol: (§1) These gradually returned to normal within 1 hour. […] The nervous system and respiratory system reactions in the long-term toxicity test were transient reactions, and the slight anemia and damage to the liver also recovered within the observation period.
# [9] = Long-term toxicity test, 13 consecutive weeks, rats; assay type: in vivo
# Protocol: as §1
# [10] = Phase I safety and tolerability in healthy subjects (BZP1601 single dose, BZP1702 multiple doses); assay type: in vivo, human
# From the text: Analysis population: same as BZP1601 trial. All 36 subjects enrolled were included in the safety analysis data set, 30 subjects in the BZP group and 6 subjects in the placebo group.
# The AE related to the study drug occurred from a few minutes to the 9th day after administration, and the symptoms turned to disappear without any clinical intervention.
# [11] = 12 mg/kg of BZP vs 9.6 mg/kg NBP-K and 10.5 mg/kg Br-NBP
# [12] = low, middle and high dose, compared with the model group
# [13] = single intravenous infusion, 25-400 mg
# [14] = 7 consecutive days, 6.0 mg/kg, rats
compound,measurement,setting,value
"CCCCC(O)c1ccc(Br)cc1C(=O)[O-].[Na+] (stereo not drawn) [BZP, sodium 5-bromo-2-(α-hydroxypentyl)benzoate]","number of positive cells, comparison with NBP-K and Br-NBP groups",[1]; [11],better than 9.6 mg/kg of NBP-K group and 10.5 mg/kg of Br-NBP group
same,"optical density value, comparison with NBP-K and Br-NBP groups",[1]; [11],better than 9.6 mg/kg of NBP-K group and 10.5 mg/kg of Br-NBP group
same,"expression of TNF-α, IL-6, IL-1β, NF-κB, COX-2, ICAM-1, immunohistochemical staining optical density value",[1]; [12],significantly reduced
same,"expressions of TNF-α, IL-6, IL-1β, NF-κB, COX-2, ICAM-1, number of immunohistochemical positive cells",[1]; [12],significantly reduced
same,"Cmax and AUC0-t, first compared with last administration","[2]; 7 consecutive days, 2.0 mg/kg, dogs",no statistically significant differences
same,accumulation in the body,"[2]; intravenous, 7 consecutive days, 2.0 mg/kg, dogs",did not accumulate
same,difference between male and female dogs,[2]; single intravenous injection,no significant difference
same,Cmax and AUC0-t versus dose,"[2]; single intravenous injection of BZP 1.0-4.0 mg/kg, dogs",basically conformed to linear kinetics
same,debrominated metabolites,[3]; 200 mg group,no debrominated metabolites were found
same,metabolites other than BNBP,[3]; BZP1601,did not find other meaningful metabolites except BNBP
same,Tmax / time of peak blood drug level,"[3]; BZP1601, median Tmax similar in each dose group",basically reached the peak blood drug level after the end of administration
same,half-life,"[3]; both, human, plasma, iv",~8 h
same,difference in AUC0-t and Cmax between subjects of different genders,[3]; single dose 25-400 mg,not significantly different; also recorded: There was no significant
same,cumulative urine excretion rate across dose groups,"[3]; single dose, each dose group",basically the same
same,relationship of AUC0-t and Cmax in plasma with the dose,[3]; [13],linearly related to the dose
same,NOGO-A expression,[4]; ischemic penumbra area,down-regulating
same,"expression of SYN, GAP-43, BDNF and GFAP",[4]; ischemic penumbra area,increasing
same,nerve repair and recovery of motor function after cerebral ischemic injury,"[4]; rat, in vivo",promote nerve repair
same,inhibition of ADP-induced platelet aggregation,platelet aggregation [5]; ADP-induced,no inhibitory effects
same,IC50,"platelet aggregation [5]; Platelet, AA-induced",12 µM
same,inhibition of thrombin-induced platelet aggregation,platelet aggregation [5]; thrombin-induced,no inhibitory effects
same,blood pressure of salt-sensitive rats,"salt-sensitive rats; 12 mg/kg, 21 days after administration",significantly reduce the blood pressure
same,neurobehavior of salt-sensitive rats,"salt-sensitive rats; BZP 3, 12 and 24 mg/kg, dose-dependent",improve the neurobehavior
same,experimental thrombosis compared with the Br-NBP group,experimental thrombosis; high dose group (P<0.01),weaker than that in the Br-NBP group
same,experimental thrombosis compared with the ASA group with the same molar dose,experimental thrombosis; high dose group (P>0.05),no statistical difference
same,results of experimental thrombosis,experimental thrombosis; high dose group,0.13±0.03
same,results of experimental thrombosis,experimental thrombosis; low dose group,0.23±0.04
same,results of experimental thrombosis,experimental thrombosis; medium dose group,0.18±0.02
same,AUC0-t after the last administration compared with the first,[6]; [14],significantly higher than that of the first time
same,"Cmax, single dose compared with multiple doses",[6]; [14],no difference
same,accumulation in the body,"[6]; intravenous, 7 consecutive days, 6.0 mg/kg, rats",did not accumulate
same,"AUC0-t, female compared with male rats",[6]; single intravenous injection,significantly higher than that in male rats
same,Cmax and AUC0-t versus dose,"[6]; single intravenous injection of BZP 0.75-12.0 mg/kg, rats",basically conformed to linear kinetics
same,"platelet aggregation inhibition rate, ADP",platelet aggregation [7]; first (low) dose group,23.89%
same,"platelet aggregation inhibition rate, arachidonic acid",platelet aggregation [7]; first (low) dose group,42.08%
same,"platelet aggregation inhibition rate, thrombin",platelet aggregation [7]; first (low) dose group,23.87%
same,"platelet aggregation inhibition rate, ADP",platelet aggregation [7]; second (medium) dose group,34.42%
same,"platelet aggregation inhibition rate, arachidonic acid",platelet aggregation [7]; second (medium) dose group,60.32%
same,"platelet aggregation inhibition rate, thrombin",platelet aggregation [7]; second (medium) dose group,37.75%
same,"platelet aggregation inhibition rate, ADP",platelet aggregation [7]; third (high) dose group,44.14%
same,"platelet aggregation inhibition rate, arachidonic acid",platelet aggregation [7]; third (high) dose group,72.20%
same,"platelet aggregation inhibition rate, thrombin",platelet aggregation [7]; third (high) dose group,55.47%
same,effect on the respiratory system,respiratory system,no effect
same,clinical signs during and after administration,"[8]; 50 mg/kg, some dogs","tremors in the head and limbs, loose stools, vomiting, and salivation"
same,clinical signs during each administration,"[8]; 150 mg/kg intravenous once a day, 13 weeks, dogs","vomited white foam-like substances, salivation, head and whole body tremors, spasms/convulsions"
same,anemia and liver findings,"[8]; 150 mg/kg, dogs",mild anemia and liver damage
same,NOAEL at 13 weeks,"[8]; dog, in vivo, long-term toxicity test, dogs, read-out: NOAEL dose",50 mg/kg
same,recovery of symptoms,"[8]; dogs, after drug withdrawal",all recovered after 28 days of drug withdrawal
same,time to return to normal,[9]; 150 mg/kg,≤ 1 h
same,clinical signs at the end of each administration,"[9]; 150 mg/kg intravenous once a day, 13 weeks","shortness of breath, prone position, occasional salivation, and disappearance of righting reflex"
same,"hematology, blood biochemistry, eye examination and urine routine",[9]; 13 weeks,no obvious abnormalities
same,NOAEL at 13 weeks,"[9]; rat, in vivo, long-term toxicity test, read-out: NOAEL dose",50 mg/kg
same,incidence of AE with dose increase,[10]; both Phase I trials,does not increase with the dose increase; also recorded: did not increase with dose increase
same,overall safety and tolerability in healthy subjects,[10]; both Phase I trials,safe and well tolerated
same,"proportion of AE, BZP groups compared with the placebo group",[10]; both Phase I trials,no statistical difference
same,"death, SAE, AE leading to drop out, other important AE",[10]; both clinical trials,"no death, SAE, AE leading to drop out, or other important AE"
same,dose-limiting toxicity (DLT),[10]; both clinical trials,No dose-limiting toxicity (DLT) occurred
same,AE of more than mild severity,"[10]; multiple dose trial, 100 mg group, AE of others mild",one case of moderate hypotension
same,"AE judged by the investigator to be related to study drug, multiple doses","[10]; multiple doses, dose group per AE",administration site pain; also recorded: hypotension; also recorded: hypokalemia; also recorded: decreased diastolic blood pressure
same,safety and tolerance,"[10]; multiple intravenous infusions, 50 to 200 mg",good safety and tolerance
same,"AE judged by the investigator to be related to study drug, single dose","[10]; single dose, dose group per AE",coagulopathy; also recorded: mild bradycardia; also recorded: decreased white blood cell counts; also recorded: decreased neutrophil cell count/percentage; also recorded: first-degree atrioventricular block; also recorded: proteinuria
same,safety and tolerance,[10]; [13],good safety and tolerance

# — patent publication US20230398087A1, “APPLICATION OF BZP IN TREATMENT OF ISCHEMIC CARDIOVASCULAR AND CEREBRAL VASCULAR DISEASES” (priority 2020, published 2023)
